These results are taken from PubChem BioAssay AID330 (DTP/NCI, 2004).

For the assay, the system named is P388 leukemia ip, CD2F1 mice, survival T/C. In words: NCI In Vivo Anticancer Drug Screen. Data for tumor model P388 Leukemia (intraperitoneal) in CD2F1 (CDF1) mice. As to conditions: endpoint: median survival time, higher = longer survival. In a few lines:
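Mice carrying the transplanted tumor received test compound or vehicle. Survival was recorded in each group, and the value is the treated-group measurement divided by that of the vehicle-treated control group.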

Where [1] appears, read: dose: 50.0 mg/kg/injection, schedule: Q01DX009 (ip), vehicle: saline with Tween-80.
[2] abbreviates: dose: 100.0 mg/kg/injection, schedule: Q01DX009 (ip), vehicle: saline with Tween-80.
[3] abbreviates: dose: 200.0 mg/kg/injection, schedule: Q01DX009 (ip), vehicle: saline with Tween-80.
[4] abbreviates: dose: 100.0 mg/kg/injection, schedule: Q01DX009 (ip), vehicle: saline.
The mark [5] stands for this setting: dose: 200.0 mg/kg/injection, schedule: Q01DX009 (ip), vehicle: saline.
Where [6] appears, read: dose: 25.0 mg/kg/injection, schedule: Q01DX009 (ip), vehicle: saline with Tween-80.
The mark [7] stands for this setting: dose: 60.0 mg/kg/injection, schedule: Q01DX005 (ip), vehicle: Klucel (hydroxypropylcellulose) (HPC).
[8] abbreviates: dose: 120.0 mg/kg/injection, schedule: Q01DX005 (ip), vehicle: Klucel (hydroxypropylcellulose) (HPC).

Where “and” joins values, the source holds several entries; their conditions need not be identical. Equal entries are not always repeated. Toxic doses and inconclusive results are not listed.

For the compound `CC(C)C1CCC2(C)CCC3(C)CCC12O3` (centres undefined), the T/C was 108 % of control (dose: 12.0 mg/kg/injection, schedule: Q01DX009 (ip), vehicle: Klucel (hydroxypropylcellulose) (HPC)); 98 % of control (dose: 24.0 mg/kg/injection, schedule: Q01DX009 (ip), vehicle: Klucel (hydroxypropylcellulose) (HPC)); 108 % of control (dose: 48.0 mg/kg/injection, schedule: Q01DX009 (ip), vehicle: Klucel (hydroxypropylcellulose) (HPC)); 108 % of control (dose: 96.0 mg/kg/injection, schedule: Q01DX009 (ip), vehicle: Klucel (hydroxypropylcellulose) (HPC)).
Consider `Cc1cccn2c(CCCc3nnc4c(C)cccn34)nnc12`, for which the T/C is, setting by setting: under setting [1], 100 % of control; under setting [2], 101 % of control; under setting [3], 101 % of control.
As for `CCOC(=O)CCc1ccc2c(c1)OCO2`, the T/C by setting is: under setting [4], 100 % of control; (dose: 100.0 mg/kg/injection, schedule: Q04DX003 (ip), vehicle: saline with Tween-80) 91 % of control; under setting [5], 104 % of control; (dose: 200.0 mg/kg/injection, schedule: Q04DX003 (ip), vehicle: saline with Tween-80) 100 % of control; (dose: 400.0 mg/kg/injection, schedule: Q01DX009 (ip), vehicle: saline) 113 % of control; (dose: 400.0 mg/kg/injection, schedule: Q04DX003 (ip), vehicle: saline with Tween-80) 91 % of control.
Take `NNC(=O)C(N)=O`: the T/C is, setting by setting: (dose: 12.5 mg/kg/injection, schedule: Q01DX009 (ip), vehicle: saline with Tween-80) 100 % of control; under setting [6], 104 % of control; under setting [1], 100 % of control; under setting [2], 97 % of control.
Take `COc1ccc(-[n+]2noc(N)n2)cc1`: the T/C (dose: 3.13 mg/kg/injection, schedule: Q01DX009 (ip), vehicle: water) was 99 % of control; the T/C (dose: 6.25 mg/kg/injection, schedule: Q01DX009 (ip), vehicle: water) was 102 % of control; the T/C (dose: 12.5 mg/kg/injection, schedule: Q01DX009 (ip), vehicle: water) was 108 % of control; the T/C (dose: 25.0 mg/kg/injection, schedule: Q01DX009 (ip), vehicle: water) was 116 % of control; the T/C (dose: 50.0 mg/kg/injection, schedule: Q01DX009 (ip), vehicle: water) is 120 % of control.
For the compound `O=c1[nH]nnc2nc(N3CCOCC3)sc12`, the T/C is 103 % of control and 95 % of control (dose: 100.0 mg/kg/injection, schedule: Q01DX001 (ip), vehicle: saline with Tween-80); 102 % of control and 104 % of control (dose: 200.0 mg/kg/injection, schedule: Q01DX001 (ip), vehicle: saline with Tween-80); 100 % of control (dose: 300.0 mg/kg/injection, schedule: Q01DX001 (ip), vehicle: saline with Tween-80).
`O=C(Nc1ccccc1)/C(N=Nc1ccc([N+](=O)[O-])cc1Cl)=N/Nc1ccc([N+](=O)[O-])cc1Cl`: the T/C was 111 % of control (dose: 50.0 mg/kg/injection, schedule: Q01DX005 (ip), vehicle: Klucel (hydroxypropylcellulose) (HPC)) and 109 % of control (dose: 100.0 mg/kg/injection, schedule: Q01DX005 (ip), vehicle: Klucel (hydroxypropylcellulose) (HPC)).
For `O=C(c1ccc(Cl)cc1)c1cc2ccccc2oc1=O`, the T/C (dose: 60.0 mg/kg/injection, schedule: Q01DX005 (ip), vehicle: saline with Tween-80) was 92 % of control; the T/C (dose: 120.0 mg/kg/injection, schedule: Q01DX005 (ip), vehicle: saline with Tween-80) is 93 % of control; the T/C (dose: 240.0 mg/kg/injection, schedule: Q01DX005 (ip), vehicle: saline with Tween-80) was 93 % of control.
As for `CC(=O)NC(CO)C(=O)c1ccc(S(=O)(=O)c2ccccc2)cc1` (centres undefined), the T/C under setting [2] was 97 % of control; the T/C under setting [3] was 91 % of control; the T/C (dose: 400.0 mg/kg/injection, schedule: Q01DX009 (ip), vehicle: saline with Tween-80) was 94 % of control.
On to `CCCCOCN(COCCCC)c1ccccn1`, for which the T/C is 103 % of control under setting [6]; 100 % of control under setting [1]; 111 % of control (dose: 50.0 mg/kg/injection, schedule: Q01DX009 (ip), vehicle: saline); 116 % of control under setting [2]; 122 % of control under setting [4]; 116 % of control under setting [3]. In addition, the T/C under setting [5] was 117 % of control.
Turning to `COc1cccc2c1C(=O)c1c(O)c3c(c(O)c1C2=O)C[C@@](O)(C(C)O)C[C@@H]3OC1CC(N2CCOCC2C#N)C(O)C(C)O1` (some centres undefined), the T/C by setting is: (dose: 0.03 mg/kg/injection, schedule: Q04DX003 (ip), vehicle: water) 120 % of control; (dose: 0.1 mg/kg/injection, schedule: Q04DX003 (ip), vehicle: water) 166 % of control; (dose: 12.5 micrograms/kg/injection, schedule: Q04DX003 (ip), vehicle: water) 107 % of control; (dose: 25.0 micrograms/kg/injection, schedule: Q04DX003 (ip), vehicle: water) 101 % of control; (dose: 50.0 micrograms/kg/injection, schedule: Q04DX003 (ip), vehicle: water) 106 % of control; (dose: 100.0 micrograms/kg/injection, schedule: Q04DX003 (ip), vehicle: water) 120 % of control.
As for `CCOC(=O)C(=O)C1Cc2ccc3ccc(OC)cc3c2C1=O` (centres undefined), the T/C runs as follows: (dose: 12.5 mg/kg/injection, schedule: Q01DX009 (ip), vehicle: distilled water + Tween-80) 109 % of control; (dose: 25.0 mg/kg/injection, schedule: Q01DX009 (ip), vehicle: distilled water + Tween-80) 112 % of control; (dose: 50.0 mg/kg/injection, schedule: Q01DX009 (ip), vehicle: distilled water + Tween-80) 102 % of control; (dose: 100.0 mg/kg/injection, schedule: Q01DX009 (ip), vehicle: distilled water + Tween-80) 94 % of control; (dose: 200.0 mg/kg/injection, schedule: Q01DX009 (ip), vehicle: distilled water + Tween-80) 102 % of control.
With `COc1ccc(CC(C#N)c2ccc(OC)cc2)cc1` (centres undefined), the T/C is 111 % of control and 96 % of control (dose: 50.0 mg/kg/injection, schedule: Q01DX009 (ip), vehicle: Klucel (hydroxypropylcellulose) (HPC)); 100 % of control and 96 % of control (dose: 100.0 mg/kg/injection, schedule: Q01DX009 (ip), vehicle: Klucel (hydroxypropylcellulose) (HPC)); 99 % of control and 93 % of control (dose: 200.0 mg/kg/injection, schedule: Q01DX009 (ip), vehicle: Klucel (hydroxypropylcellulose) (HPC)).
With `Nc1nccc(NCCCCCCNc2ccnc(N)n2)n1`, the T/C is 104 % of control and 108 % of control (dose: 12.5 mg/kg/injection, schedule: Q04DX002 (ip), vehicle: saline); 106 % of control and 114 % of control (dose: 25.0 mg/kg/injection, schedule: Q04DX002 (ip), vehicle: saline); 105 % of control and 114 % of control (dose: 50.0 mg/kg/injection, schedule: Q04DX002 (ip), vehicle: saline); 114 % of control and 119 % of control (dose: 100.0 mg/kg/injection, schedule: Q04DX002 (ip), vehicle: saline); 116 % of control and 123 % of control (dose: 200.0 mg/kg/injection, schedule: Q04DX002 (ip), vehicle: saline).
Consider `COc1cccc(C(=O)NC(=O)NC(=O)c2ccccc2)c1`, for which the T/C by setting is: (dose: 100.0 mg/kg/injection, schedule: Q04DX002 (ip), vehicle: saline with Tween-80) 100 % of control; (dose: 200.0 mg/kg/injection, schedule: Q04DX002 (ip), vehicle: saline with Tween-80) 93 % of control; (dose: 400.0 mg/kg/injection, schedule: Q04DX002 (ip), vehicle: saline with Tween-80) 93 % of control.
As to `COc1ccc(O)c(CN2CCN(Cc3cc(OC)ccc3O)CC2)c1`, the T/C was 91 % of control (dose: 15.0 mg/kg/injection, schedule: Q01DX005 (ip), vehicle: saline with Tween-80) and 86 % of control (dose: 30.0 mg/kg/injection, schedule: Q01DX005 (ip), vehicle: saline with Tween-80).
With `CCCCCCCCCCCC[n+]1cc2ccccc2cc1C`, where the note is “dose: 6.25 mg/kg/injection, schedule: Q01DX005 (ip), vehicle: saline with Tween-80”, the T/C is 115 % of control and 122 % of control.
On to `O=C(Nc1cccc(Cl)c1Cl)OCCCc1ccncc1`, for which the T/C was 100 % of control under setting [1] and 100 % of control under setting [2].
Turning to `CC12CCC(c3cn[nH]c31)C2(C)C` (centres undefined), the T/C reads like this: under setting [7], 100 % of control; under setting [8], 100 % of control; (dose: 240.0 mg/kg/injection, schedule: Q01DX005 (ip), vehicle: Klucel (hydroxypropylcellulose) (HPC)) 100 % of control.
In the case of `C=Cn1cc[n+](CC(=O)OC2CCC3C4CCC5=CC(=O)CCC5(C)C4CCC23C)c1` (centres undefined), the T/C is, setting by setting: (dose: 3.75 mg/kg/injection, schedule: Q01DX005 (ip), vehicle: Klucel (hydroxypropylcellulose) (HPC)) 97 % of control; (dose: 7.5 mg/kg/injection, schedule: Q01DX005 (ip), vehicle: Klucel (hydroxypropylcellulose) (HPC)) 96 % of control.
As for `CCOC(=O)c1nnc(-c2ccccc2)nc1Cl`, the T/C under setting [7] is 103 % of control and the T/C under setting [8] was 100 % of control.
